According to patent publication US20030143744A1, “Method for the production of cotton somatic embryos” (priority 2000, published 2003):

Tests used:
Assay type in all cases: cell-based, Cotton (Gossypium hirsutum L.)
[1] = system: epidermal strips of Coker line 312; assay: Callus initiation from epidermal strips of Coker line 312; details: cytokinin at 4.9 μM, medium further supplemented with NAA (10.7 μM); basal region of bract
Experimental: Following disinfection, bracts were soaked in sterile distilled water, for at least 3 h, to facilitate peeling. Epidermal strips were carefully excised from the lower epidermis, using fine forceps under sterile conditions. The enzymatic treatment of epidermal strips was tested for the removal of all contaminating mesophyll and vascular tissues as follows: strips were immersed for 2-3.5 h, in a filter sterilised solution containing Linsmaier & Skoog salts (1965), Cellulysin (0.2% w/v), Hemicellulase (0.2% w/v), polyvinylpyrrolidone (PVP-40, 0.1% w/v) and pH adjusted to 5.5.
Epidermal fragments (3-10 mm size), with or without enzymatic treatment, were placed in Petri dishes (32 mm in diameter) containing 2 ml semi-solid medium, with the cuticle side either in contact with the medium or upwards.
(§1) A basal medium containing Murashige and Skoog ((1962) Physiol Plant 15: 473-497.) salts, Trolinder & Goodin ((1988a) Plant Cell Tiss Org Cult 12: 31-42.) vitamins and glucose (166.5 mM equivalent to 30 g.l^−1) was used throughout the experiments. For callus initiation, basal medium was supplemented with naphthalene acetic acid (NAA, 2.7, 5.4, 10.7 and 21.5 μM) and isopentenyladenine (iP, 1.3, 2.5 and 4.9 μM). In addition, the effects of thidiazuron (tdz), kinetin (kin) and iP, each at a concentration of 4.9 μM, were tested for their effect on callus morphology and development. Callus initiation was evaluated after 3-6 weeks. Media was used as liquid or solidified (geirite 1.6 g.l^−1 plus 7.9 mM MgCl2). Twenty to thirty epidermal strips were cultured per dish.
The effect of shading of the culture dishes on callus initiation was also evaluated. One or two dishes containing a layer of culture medium (2 ml) were placed on the top of dishes containing the cultures. Dishes were incubated on full light (26.3 μmol. m^−2.s^−1) or under reduced light irradiance, respectively, under shade from 1 dish (21.0 μmol. m^−2.s^−1) or shading from two dishes (15.8 μmol. m^−2.s^−1).

[2] = system: both Coker lines (312 and 315); assay: Callus initiation, growth and morphology by growth regulators
Experimental: as §1
Epidermal strips were excised from the whole bract of Coker line 315 and cultured on medium containing NAA (2.7, 5.4, 10.7 and 21.5 μM) and iP (1.3, 2.5 and 4.9 μM). Two to four independent experiments were carried out and 1300 epidermal strips were used in these studies.
Callus initiation, growth and morphology from both Coker lines (312 and 315) were influenced by the growth regulators in the callus initiation medium. […] In addition, there were no statistical significant differences in callus induction frequency within the remaining range of treatments tested.

[3] = system: embryogenic callus / somatic embryos; assay: Somatic embryo histodifferentiation on differentiation medium
Experimental: Following callus initiation, calluses were sub-cultured, every 4-5 weeks, to callus initiation medium or to basal medium without growth regulators, either solidified or liquid, agitated (under orbital shaking at 110 rpm) or to the surface of filter paper (Whatman™ n° 1) bridges, inserted into macrowell plates (34 mm in diameter, well), containing 3-4 ml of liquid medium to induce somatic embryogenesis. Liquid cultures were maintained by subculture at 2 week intervals. Primary calli containing embryogenic clumps were sub-cultured to somatic embryo differentiation media. A culture medium similar to embryogenesis callus induction medium was used, but modified to contain 10 mM glutamine (Price and Smith 1979 (Planta 145: 305-307.), Cousins et al. 1991 Aust. J. Plant Physiol. 18: 481-494.), 5.4 μM NAA, 2.5 μM iP and solidified with 0.2% gelrite. The effect of abscisic acid (ABA, 0.0, 0.19, 0.38, 1.9 μM) on somatic embryo histodifferentiation was tested.

Structure (SMILES)	callus induction [1]	time to similar size of callus ([2]; iP 1.2 μM)	time to macroscopic calluses ([2]; iP 4.9 μM)	somatic embryo differentiation ([3]; ABA 0.0 or 1.9 μM)	somatic embryo differentiation ([3]; ABA 0.19-0.38 μM, after 3-4 weeks)
CC(C)=CCNc1ncnc2nc[nH]c12 [iP, isopentenyladenine]	36.3±15.8%	8 weeks	4-5 weeks		
O=C(Nc1ccccc1)Nc1cnns1 [Tdz, thidiazuron]	31.3±4.5%				
c1coc(CNc2ncnc3[nH]cnc23)c1 [Kin, kinetin]	8.6±0.7%				
CC1=CC(=O)CC(C)(C)[C@@]1(O)/C=C/C(C)=C\C(=O)O [ABA, abscisic acid]				less uniform	Synchronised embryo differentiation and improved somatic embryo uniformity
